How the values were obtained:
[1] = molecular target: T1, ERα from rat uterine cytosol (RUC) (Rattus norvegicus, UniProt P06211); experiment: Rat uterine cytosol competitive radioligand ([3H]E2) binding assay
T1 construct: from tissue
T1 sequence (P06211 1-600): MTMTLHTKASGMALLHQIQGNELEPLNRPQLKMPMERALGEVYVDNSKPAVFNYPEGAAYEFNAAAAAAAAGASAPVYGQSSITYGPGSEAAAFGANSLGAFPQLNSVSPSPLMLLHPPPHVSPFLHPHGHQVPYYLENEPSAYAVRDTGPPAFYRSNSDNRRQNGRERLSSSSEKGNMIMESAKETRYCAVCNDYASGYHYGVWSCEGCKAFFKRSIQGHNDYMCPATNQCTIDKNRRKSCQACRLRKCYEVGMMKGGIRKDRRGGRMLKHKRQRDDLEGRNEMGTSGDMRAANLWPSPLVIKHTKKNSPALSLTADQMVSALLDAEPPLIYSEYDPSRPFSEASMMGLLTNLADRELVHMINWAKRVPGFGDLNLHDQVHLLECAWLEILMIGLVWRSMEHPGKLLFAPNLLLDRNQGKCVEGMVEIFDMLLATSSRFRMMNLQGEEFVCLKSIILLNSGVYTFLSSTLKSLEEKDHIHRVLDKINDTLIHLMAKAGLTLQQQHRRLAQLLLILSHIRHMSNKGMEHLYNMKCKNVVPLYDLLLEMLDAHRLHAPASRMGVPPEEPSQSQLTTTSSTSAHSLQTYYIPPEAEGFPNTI

T47D cells = experiment: MTT cell viability, E2-depleted T47D cells; format: cell-based, human; details: 10 μM, 24 h, absence of E2
Description: (§1) The effects of lignan derivatives were evaluated on human ER+ BC cells.
(§2) Cells were maintained in RPMI (Lonza, Basel, Switzerland) growth media, without phenol red, supplemented with 10% fetal bovine serum (FBS) (Lonza), 2 mM glutamine, 10 mM HEPES, 1 mM sodium pyruvate, 100 UI/mL penicillin and 100 μg/mL streptomycin. Cells were growth in a humidified incubator with 5% CO2 at 37 °C.
(§3) The cells were maintained in standard growth media as detailed above and seeded at exponential growth density (6000 cells per well) in 96-well plates (BD Falcon, France). The cells were then treated with vehicle or tests compounds (from 0.01 μM to 10 μM) for 24–72 h. The mitochondrial metabolization of the tetrazolium salt 3-(4,5-methyltiazol-2yl-)-2,5diphenyl-tetrazolium bromide] (MTT) (Applichen, Darmstadt, Germany) was used as an indicator of cell viability.
(§4) Figure 6 Effects of lignans on ER+ breast cancer cell viability. […] Then, the mitochondrial metabolization of MTT was used as an indicator of cell viability, as described in the Material and Methods. Data are expressed as mean ± SEM for at least three independent experiments, where each concentration is tested in triplicate. * p < 0.05, ** p < 0.01, and *** p < 0.001 versus VEH-treated cells.

rhERα-LBD = molecular target: T2, rhERα-LBD (Homo sapiens, UniProt P03372); experiment: LanthaScreen TR-FRET competitive binding assay; details: 10-point competition curves; Mean ± SE; read-out: IC50 (inhibition of Fluormone tracer binding to rhERα)
T2 sequence (P03372 311-547 limits assumed): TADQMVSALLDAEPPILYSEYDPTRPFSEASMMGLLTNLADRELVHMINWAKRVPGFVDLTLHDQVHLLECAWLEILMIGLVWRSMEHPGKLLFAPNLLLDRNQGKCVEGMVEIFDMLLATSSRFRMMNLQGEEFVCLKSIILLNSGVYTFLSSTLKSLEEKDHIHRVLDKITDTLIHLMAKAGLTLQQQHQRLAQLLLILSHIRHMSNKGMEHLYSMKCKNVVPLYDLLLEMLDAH
Description: Next, the binding of lignan derivatives to the LBD of rhERα was analyzed by using time-resolved fluorescence resonance energy transfer (TR-FRET) competitive binding assay. […] The LanthaScreen^TM TR-FRET Nuclear Receptor (NR) binding assay (SelectScreen^TM Profiling Service, Life Technologies, Carlsbad, CA, USA) was used for screening of potential binding of lignan derivatives to human ERα [33]. Briefly, the kit uses the recombinant human ERα (rhERα) protein and a tight binding, selective fluorescent ligand, Fluormone^TM tracer. […] The rhERα protein and the tracer form rhERα/tracer complex, resulting in a high FP value. […] Dose-response competition curves were fitted by nonlinear regression analyses in the GraphPad software 8 (GraphPad Software, San Diego, CA, USA) to obtain IC50 values.
Data are expressed as mean ± SEM for from at least three independent experiments, where each concentration is tested in triplicate.

T47D and MCF7 cells = experiment: MTT cell viability, E2 non-depleted T47D and MCF7 cells, 72 h; format: cell-based, human; details: 10 μM, maximum reduction
Description: as §1, §2, §3, §4

[2] = system: ER-dependent transcriptional activity in T47D-KBluc cells; experiment: ERE-luciferase reporter in T47D-KBluc cells, agonist assessment (absence of E2); format: cell-based, human
Description: Lactols (5) and (6) were tested as a mixture of the two epimers obtained.
Chemical screening was carried out by using T47D-KBluc cells, an ER+ BC cell line that is stably transfected with the pGL2.TATA.Inr.Luc.neo containing three ER-responsive elements (ERE). The T47D-KBluc cells were maintained in standard growth media as detailed above. Dosing media was further modified by reduction of DCC-FBS to 5%. […] Chemical screening was also carried out by using the triple negative BC cell line MDA-kb2 cells that stably expresses pMMTV.neo.luc gene, an AR- and GR-responsive reporter gene. […] The T47D-KBluc cells or the MDA-kb2 cells were seeded at 100,000 cells per well in 24-well plates (Nunclon, Sigma-Aldrich, Darmstadt, Germany ) and allowed to attach overnight. Then, the media was replaced with 1 mL/well of dosing media and test compounds incubated 24 h. Then, the cells were harvested in 100 µL passive lysis buffer (Promega, Madison, WI, USA) per well. The relative light units (RLUs), which correspond to luciferase activity from each sample, were measured by using Luciferase Assay Reagent (Promega) in a Clarity luminescence microplate reader (BIOTEK, Winooski, VT, USA). The RLUs from each sample were normalized by protein concentration and converted to fold induction with respect to vehicle-treated control. […] Then, the percent of efficacy (E) of each tested compound, as compared with Emax, was calculated. […] Data are expressed as mean ± SEM of triplicate independent experiments, where each treatment was assayed in triplicate. […] Duplicate plates were dosed in parallel to control the effects of compounds on cell viability. The protein concentration was measured in cell lysate using colorimetric assay reagent (BioRad, CA, USA).

With COc1ccc(C[C@@H](C)[C@H](C)Cc2ccc(O)c(O)c2)cc1OC [Compound 14, 4-((2R,3R)-4-(3,4-Dimethoxyphenyl)-2,3-dimethylbutyl)benzene-1,2-diol] the IC50 [1] was 3.96 ± 0.98 µM, the “reduction of cell viability” value (T47D cells) was “reduced cell viability” and the IC50 (rhERα-LBD) was 160 ± 110 nM. The “reduction of cell viability” value (T47D and MCF7 cells) was 33.4%, the “E/Emax (%) VEH” value [2] was “weak estrogenic activity” and the Emax ([2]; Homo sapiens, read-out: E/Emax (%) VEH) was 21.7 ± 4.12%.

From article PMC9145393, “Design, Semisynthesis, and Estrogenic Activity of Lignan Derivatives from Natural Dibenzylbutyrolactones” (Pharmaceuticals, 2022)
